# Assay: The compound was evaluated for the inhibitory activity against human thrombin
compound,measurement,value
"CC1(C)CNc2c(cccc2S(=O)(=O)NC(CCCNC(=N)N)C(=O)N2CCC(CCO)CC2)C1 (stereo unspecified) [3,3-Dimethyl-1,2,3,4-tetrahydro-quinoline-8-sulfonic acid {4-guanidino-1-[4-(2-hydroxy-ethyl)-piperidine-1-carbonyl]-butyl}-amide]",Ki,32 nM

# — BindingDB's records for doi:10.1021/jm9811209 (Novartis Horsham Research Centre, 1999)
